# Experimental data published in patent US4122184A, “Benzimidazole insecticides” (priority 1977, dated 1978).
# Assays:
# Aphids - Sour Gum = assay: Field trial, stomach poison test; assay type: in vivo
# How it was run: (§1)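 Treated foliage (dipped, or sprayed at 10 psi, then dried) is offered to counted insects in dishes. Scoring of mortality uses a 0–9 scale at three time points up to 72 h.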
# Alfalfa Weevil Larvae = assay: Field trial, stomach poison test; assay type: in vivo
# How it was run: as §1
# Asparagus Beetles Adults = assay: Field trial, stomach poison test; assay type: in vivo
# How it was run: as §1
# Aphids - Apple = assay: Field trial, stomach poison test; assay type: in vivo
# How it was run: as §1
# Aphids - Tulip Tree = assay: Field trial, stomach poison test; assay type: in vivo
# How it was run: as §1
# Meadow Spittlebug = assay: Field trial, stomach poison test; assay type: in vivo
# How it was run: as §1
# [1] = test system: Potato Flea Beetle Adults; assay: Field trial, stomach poison test; assay type: in vivo
# How it was run: as §1
# Elm Leaf Beetle = assay: Field trial, contact poison test; assay type: in vivo
# How it was run: (§2)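 Each infested plant sits in a water-filled bottle to prevent wilting, and the test compound is then atomized onto it at 10 psi at various concentrations. Falling dead insects are collected, and mortality is rated 0 (0-10%) to 9 (91-100%) at up to 72 h.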
# Armyworm, P. Unipuncta = assay: Field trial, contact poison test; assay type: in vivo
# How it was run: as §2
# Walnut Caterpillar = assay: Field trial, contact poison test; assay type: in vivo
# How it was run: as §2
# Eastern Tent Caterpillar = assay: Field trial, contact poison test; assay type: in vivo
# How it was run: as §2
# Tussock Moth = assay: Field trial (first summer), stomach; assay type: in vivo; details: 750 ppm
# Experimental: (§3) Leaves from the infested plant are treated with different concentrations of the test compounds, either by spraying with a DeVilbiss Special Atomizer (5004) at 10 psi or by dipping the leaves in solutions containing the compound. The leaves are then allowed to air dry.
# (§4) After the leaves have dryed, they are placed in plastic petri dishes (100 × 25 mm), then the insects are counted out into each dish, five or ten insects per dish depending on the number of insects available. There are one or two replicates and usually two or three rates with each compound. Mortality results are taken at 24, 48 and 72 hours. The rating scale is 0 to 9.
# (§5) During the previous summer similar field trials were conducted employing the same tests as heretofore but with some additional species of insects not included in the later tests. The results listed below are for tests in which an insect mortality was established by a given application route and at a given concentration in a particular test. The same 0 - 9 scoring system is used as is the designation of compounds by alphabetical symbols.
# Zebra Caterpillar = assay: Field trial (first summer), stomach; assay type: in vivo; details: 500 ppm
# Experimental: as §3, §4, §5
# Picnic Beetle = assay: Field trial (first summer), contact; assay type: in vivo; details: 250 ppm
# Description: (§6) Infested plants are placed in 6 oz. prescription bottles filled with water to keep them from wilting. Cellucotton is wrapped around the plant stem and squeezed into the bottle neck to prevent the insects from drowning.
# (§7) A DeVilbiss Special Atomizer (5004) is used at 10 psi to spray the test plant with different concentrations of compounds. The atomizer is held at arm's length to prevent blowing the insects off the host plant. After treating, the bottles are placed on a table covered with brown wrapping paper to catch the dead insects as they drop from the plant. The plants are spaced so the leaves or plants are not touching one another.
# (§8) The results are read at 24, 48, and 72 hours when applicable. The rating scale is 0 to 9 where 0 = 0-10 percent and 9 = 91-100 percent mortality.
# as §5
# Milkweed Beetle = assay: Field trial (first summer), contact; assay type: in vivo; details: 125 ppm
# Description: as §6, §7, §8, §5
# Mosquito Larvae = assay: Mosquito larvae test (dip test); assay type: in vivo, Aedes aegypti; details: 48 h
# Experimental: Aedes aegypti larvae 5 days old are allowed to feed on fresh food for at least 3 hours previous to being placed on test. Larvae are then removed from the rearing pans by pouring on a 20 mesh screen, washing with deionized water, and pooling in a 6-inch white enameled sauce pan.
# Twenty larvae are placed in a 1 oz. paper cup containing 25 ml. of deionized water.
# Test chemicals are dissolved in a suitable solvent and pipetted under the surface of 225 ml. of deionized water in one pint wide-mouthed Mason jar test containers and stirred. A cup containing 20 larvae in 25 ml. of water is then added. […]
# Results are determined 48 hours later by counting the dead and moribund larvae. […] Moribund larvae are those that are capable of limited, or poorly coordinated, locomotion in a sluggish manner.
# Live larvae respond normally and actively.
# [2] = test system: Two-Spotted Spider Mite (2-SSM); assay: Miticide test, acute mortality, foliar spray; assay type: in vivo, Tetranychus urticae
# Experimental: Each 5 mg. sample of technical compound preweighed at Greenfield was dissolved in 2.5 ml. of acetone and diluted with 247.5 ml. of water containing a combination of […]
# The treated cuttings were stored in the greenhouse for 24 hours before evaluation under a binocular disecting microscope in the laboratory. In evaluating the results of the miticide test, each treated cutting was removed from the test tube, observed for live and dead mites at 14 × magnification, and returned immediately to the test tube. A scale of 0-9 was used as before.
# The test employing two-spotted spider mites was conducted in similar fashion except that the mites were maintained on squash seedlings or squash cuttings.
# House Fly = assay: Housefly (Stomach) Test; assay type: in vivo, Musca domestica (Diptera); details: 24 h
# Experimental: Ten chilled house flies are taken from the rearing cage and placed in a covered petri dish. Sugar cubes treated with 0.2 ml. of a formulation containing a specified level of the insecticide are placed in the petri dish one hour after the flies have been removed from the chill room. Controls consist of sugar cubes treated with 0.2 ml. of deionized water and cubes treated with 0.2 ml. of a formulation containing 500 ppm of malathion. Mortality counts are made 24 hours later. The same rating scale is used as before.
compound,measurement,setting,value
"O=[N+]([O-])c1cc(C(F)(F)F)cc2nc(C(F)(F)F)[nH]c12 [A, 2,6-bis(trifluoromethyl)-4-nitrobenzimidazole]",average mortality rating,Aphids - Sour Gum; 25 ppm,7
same,average mortality rating,Aphids - Sour Gum; 50 ppm,9 (91-100 percent mortality)
same,average mortality rating,Aphids - Sour Gum; 100 ppm,9 (91-100 percent mortality)
same,average mortality rating,Alfalfa Weevil Larvae; 125 ppm,7
same,average mortality rating,Alfalfa Weevil Larvae; 250 ppm,7
same,average mortality rating,Alfalfa Weevil Larvae; 500 ppm,7
same,average mortality rating,Asparagus Beetles Adults; 5 ppm,0 (0-10 percent)
same,average mortality rating,Asparagus Beetles Adults; 10 ppm,3
same,average mortality rating,Asparagus Beetles Adults; 25 ppm,9 (91-100 percent mortality)
same,average mortality rating,Aphids - Apple; 25 ppm,1
same,average mortality rating,Aphids - Apple; 50 ppm,4
same,average mortality rating,Aphids - Apple; 100 ppm,4
same,average mortality rating,Aphids - Tulip Tree; 25 ppm,8
same,average mortality rating,Aphids - Tulip Tree; 50 ppm,5
same,average mortality rating,Aphids - Tulip Tree; 100 ppm,8
same,average mortality rating,Meadow Spittlebug; 10 ppm,2
same,average mortality rating,Meadow Spittlebug; 25 ppm,0 (0-10 percent)
same,average mortality rating,Meadow Spittlebug; 50 ppm,1
same,average mortality rating,[1]; 10 ppm,9 (91-100 percent mortality)
same,average mortality rating,[1]; 25 ppm,6
same,average mortality rating,[1]; 50 ppm,9 (91-100 percent mortality)
same,average mortality rating,[1]; 100 ppm,9 (91-100 percent mortality)
same,average mortality rating,Elm Leaf Beetle; 250 ppm,0 (0-10 percent)
same,average mortality rating,Elm Leaf Beetle; 500 ppm,7
same,average mortality rating,Elm Leaf Beetle; 1000 ppm,9 (91-100 percent mortality)
same,average mortality rating,"Armyworm, P. Unipuncta; 125 ppm",0 (0-10 percent)
same,average mortality rating,"Armyworm, P. Unipuncta; 250 ppm",1
same,average mortality rating,"Armyworm, P. Unipuncta; 500 ppm",3
same,average mortality rating,Walnut Caterpillar; 25 ppm,1
same,average mortality rating,Walnut Caterpillar; 50 ppm,1
same,average mortality rating,Walnut Caterpillar; 100 ppm,1
same,average mortality rating,Walnut Caterpillar; 250 ppm,7
same,average mortality rating,Eastern Tent Caterpillar; 50 ppm,0 (0-10 percent)
same,average mortality rating,Eastern Tent Caterpillar; 100 ppm,3
same,average mortality rating,Eastern Tent Caterpillar; 250 ppm,5
same,average mortality rating,Eastern Tent Caterpillar; 500 ppm,5
same,insect mortality rating,Tussock Moth,9 (91-100 percent mortality)
same,insect mortality rating,Zebra Caterpillar,7
same,insect mortality rating,Picnic Beetle,9 (91-100 percent mortality)
same,insect mortality rating,Milkweed Beetle,9 (91-100 percent mortality)
"CCCCCCOC(=O)n1c(C(F)(F)F)nc2c([N+](=O)[O-])cc(C(F)(F)F)cc21 [E, n-hexyl 2,6-bis(trifluoromethyl)-4-nitro-1-benzimidazolecarboxylate]",average mortality rating,Aphids - Sour Gum; 25 ppm,1
same,average mortality rating,Aphids - Sour Gum; 50 ppm,3
same,average mortality rating,Aphids - Sour Gum; 100 ppm,5
same,average mortality rating,Alfalfa Weevil Larvae; 125 ppm,1
same,average mortality rating,Alfalfa Weevil Larvae; 250 ppm,4
same,average mortality rating,Alfalfa Weevil Larvae; 500 ppm,3
same,average mortality rating,Asparagus Beetles Adults; 5 ppm,3
same,average mortality rating,Asparagus Beetles Adults; 10 ppm,5
same,average mortality rating,Asparagus Beetles Adults; 25 ppm,9 (91-100 percent mortality)
same,average mortality rating,Aphids - Apple; 25 ppm,5
same,average mortality rating,Aphids - Apple; 50 ppm,5
same,average mortality rating,Aphids - Apple; 100 ppm,7
same,average mortality rating,Aphids - Tulip Tree; 25 ppm,6
same,average mortality rating,Aphids - Tulip Tree; 50 ppm,6
same,average mortality rating,Aphids - Tulip Tree; 100 ppm,8
same,average mortality rating,Meadow Spittlebug; 10 ppm,1
same,average mortality rating,Meadow Spittlebug; 25 ppm,2
same,average mortality rating,Meadow Spittlebug; 50 ppm,3
same,average mortality rating,Meadow Spittlebug; 100 ppm,1
same,average mortality rating,[1]; 10 ppm,9 (91-100 percent mortality)
same,average mortality rating,[1]; 25 ppm,9 (91-100 percent mortality)
same,average mortality rating,[1]; 50 ppm,7
same,average mortality rating,[1]; 100 ppm,8
same,average mortality rating,Mosquito Larvae; 0.010 ppm,0 (0-10%)
same,average mortality rating,Mosquito Larvae; 0.025 ppm,0 (0-10%)
same,average mortality rating,Mosquito Larvae; 0.05 ppm,1 (15-20%)
same,average mortality rating,Mosquito Larvae; 0.1 ppm,8 (85-90%)
same,insect mortality rating,Tussock Moth,5
same,insect mortality rating,Zebra Caterpillar,5
same,acute mortality rating,[2]; 6.25 ppm,3
same,acute mortality rating,[2]; 12.5 ppm,2
same,acute mortality rating,[2]; 25 ppm,5
same,acute mortality rating,[2]; 50 ppm,9 (91-100 percent mortality)
same,acute mortality rating,[2]; 100 ppm,9 (91-100 percent mortality)
same,insect mortality rating,Picnic Beetle,9 (91-100 percent mortality)
same,insect mortality rating,Milkweed Beetle,9 (91-100 percent mortality)
"CC(C)OC(=O)n1c(C(F)(F)F)nc2c([N+](=O)[O-])cc(C(F)(F)F)cc21 [I, isopropyl 2,6-bis(trifluoromethyl)-4-nitro-1-benzimidazolecarboxylate]",average mortality rating,Alfalfa Weevil Larvae; 125 ppm,8
same,average mortality rating,Alfalfa Weevil Larvae; 250 ppm,4
same,average mortality rating,Alfalfa Weevil Larvae; 500 ppm,6
same,average mortality rating,Aphids - Apple; 25 ppm,1
same,average mortality rating,Aphids - Apple; 50 ppm,5
same,average mortality rating,Aphids - Apple; 100 ppm,9 (91-100 percent mortality)
same,average mortality rating,Aphids - Tulip Tree; 25 ppm,5
same,average mortality rating,Aphids - Tulip Tree; 50 ppm,5
same,average mortality rating,Aphids - Tulip Tree; 100 ppm,5
same,average mortality rating,Meadow Spittlebug; 10 ppm,2
same,average mortality rating,Meadow Spittlebug; 25 ppm,5
same,average mortality rating,Meadow Spittlebug; 50 ppm,3
same,average mortality rating,[1]; 10 ppm,6
same,average mortality rating,[1]; 25 ppm,8
same,average mortality rating,[1]; 50 ppm,8
same,average mortality rating,[1]; 100 ppm,9 (91-100 percent mortality)
same,average mortality rating,Elm Leaf Beetle; 250 ppm,1
same,average mortality rating,Elm Leaf Beetle; 500 ppm,1
same,average mortality rating,Elm Leaf Beetle; 1000 ppm,1
same,average mortality rating,"Armyworm, P. Unipuncta; 125 ppm",0 (0-10 percent)
same,average mortality rating,"Armyworm, P. Unipuncta; 250 ppm",0 (0-10 percent)
same,average mortality rating,"Armyworm, P. Unipuncta; 500 ppm",0 (0-10 percent)
same,average mortality rating,Walnut Caterpillar; 25 ppm,0 (0-10 percent)
same,average mortality rating,Walnut Caterpillar; 50 ppm,1
same,average mortality rating,Walnut Caterpillar; 100 ppm,2
same,average mortality rating,Walnut Caterpillar; 250 ppm,3
same,average mortality rating,Eastern Tent Caterpillar; 50 ppm,0 (0-10 percent)
same,average mortality rating,Eastern Tent Caterpillar; 100 ppm,1
same,average mortality rating,Eastern Tent Caterpillar; 250 ppm,3
same,average mortality rating,Eastern Tent Caterpillar; 500 ppm,6
same,average mortality rating,Eastern Tent Caterpillar; 1000 ppm,5
same,acute mortality rating,[2]; 6.25 ppm,3
same,acute mortality rating,[2]; 12.5 ppm,2
same,acute mortality rating,[2]; 25 ppm,8
same,acute mortality rating,[2]; 50 ppm,8
same,acute mortality rating,[2]; 100 ppm,8
"mixture of methyl 2,6-bis(trifluoromethyl)-4-nitro-1-benzimidazolecarboxylate and methyl 2,5-bis(trifluoromethyl)-7-nitro-1-benzimidazolecarboxylate",average mortality rating,Alfalfa Weevil Larvae; 125 ppm,7
same,average mortality rating,Alfalfa Weevil Larvae; 250 ppm,6
same,average mortality rating,Alfalfa Weevil Larvae; 500 ppm,3
same,average mortality rating,Asparagus Beetles Adults; 5 ppm,5
same,average mortality rating,Asparagus Beetles Adults; 10 ppm,5
same,average mortality rating,Asparagus Beetles Adults; 25 ppm,9 (91-100 percent mortality)
same,average mortality rating,Meadow Spittlebug; 100 ppm,5
same,mortality rating,House Fly; 250 ppm,2 (21-30)
same,mortality rating,House Fly; 500 ppm,5.5
same,mortality rating,House Fly; 1000 ppm,8.5
same,average mortality rating,Mosquito Larvae; 0.025 ppm,0 (0-10%)
same,average mortality rating,Mosquito Larvae; 0.05 ppm,0 (0-10%)
same,average mortality rating,Mosquito Larvae; 0.1 ppm,4 (45-50%)
same,insect mortality rating,Picnic Beetle,9 (91-100 percent mortality)
same,insect mortality rating,Milkweed Beetle,9 (91-100 percent mortality)
